In patent US20080167189A1, “Polymer Compositions and Their Use in the Production of Active or Effective Ingredient Compositions” (Basf Aktiengesellschaft, priority 2005, published 2008):
Converted amounts (≈) assume the structure as drawn.

Assays:
[1] = physchem; settings: water
[2] = Solubility of the active compounds in distilled water

Compound	solubility [1]	solubility [2]
O=C(Nc1ccccc1-c1ccc(Cl)cc1)c1cccnc1Cl [Boscalid]	4.6 µg/mL (≈ 13.4 µM)	
COC(=O)N(OC)c1ccccc1COc1ccn(-c2ccc(Cl)cc2)n1 [Pyraclostrobin]		2.4 µg/mL (≈ 6.19 µM)
